Like-named read-outs stand apart in the source and are kept apart here.
Key:
[1] = Thermal half-life of the metastable Z isomer; type: physicochemical; details: Tris buffer + 0.5% DMSO
Method: Figure S36. Photostationary state of 9 after irradiation with 528 nm (switching to the E -isomer).
1.4.3. Thermal Half-lives
For the determination of the thermal stability of the metastable Z isomer a 50 µM solution in Tris buffer
+ 0.5% DMSO was irradiated with 365 nm. For 4 weeks the absorption at 335 nm was measured every
ExpDec1 Fit of Sheet1 B 0,35 ExpDec1 Fit of Sheet1 B
Modell ExpDec1 Modell ExpDec1
Gle i c hung y = A 1 *e xp (-x/t1 ) + y0 Gle i c hung y = A 1 *e xp (-x/t1 ) + y0
Ze i c hne n B Ze i c hne n B
(also on this page, place not known: E-isomer). 0,45absorption 335 nm Gleichung A1*exp(-x/t1) Zeichnen (COD) 0,50absorption 335 nm Gleichung A1*exp(-x/t1) Zeichnen (COD)) […]

[2] = UV/Vis spectra of E- and Z-isomers in Tris buffer; type: physicochemical; details: for λmax (E): E-isomer, Tris buffer 50 mM Tris, 1 mM EDTA, 1 mM MgCl2; for λmax (Z): Z-isomer, Tris buffer
Method: 1.4. Photophysical Characterization
1.4.1. UV/Vis Spectra and Cycle Performance
UV/Vis absorption spectra were measured to characterize the photophysical properties of the synthesized pho to switches. The pho to switches were diluted with TRIS buffer (50 m M Tris, 1 m M EDTA, 1 mM MgCl2, pH 7.4) to end up with a concentration of 10 µM + 0.5% DMSO. The spectra were measured in a quartz glass cuvette after different illuminations with LED modules. First, the solution was illuminated with 365 nm light for 10 s to switch to the Z -isomer. After measuring the UV/Vis spectrum of the Z-isomer (purple curve), the solution was illuminated with 528 nm light for 120 s and the spectrum for the E -isomer (black curve) was measured. This cycle was repeated ten times to show the stability and repeatability of switching the compound. The isosbestic points could be determined from an overlay of the UV/Vis spectra of both isomers.
(§1) Wavelength λ [nm] Cycle Number
Figure S10. UV/Vis spectr um and cycle performance of 1.
Figure S11. UV/Vis spectr um and cycle performance of 2.
(also on this page, place not known: photoswitches. photoswitches mM mM MgCl 2, 0.5 % E-isomer coul d spectrum spectrum 600 0,15Absorbance 0 Absorbance 340 nm 600 0,18Absorbance 0 Absorbance 335 nm)

[3] = Photostationary states by analytical HPLC at isosbestic points; type: physicochemical; details: single experiment; for PSS (E → Z): irradiation with 365 nm; for PSS (Z → E): irradiation with 528 nm
Method: as §1
Figure S18. UV/Vis spectr um and cycle performance of 7.
1.4.2. Photostationary States
Photostationary states (PSS) were measured on analytical HPLC. To determine the photostationary state of the photoswitches the samples (0.2 mM in Tris buffer + 2% DMSO) were irradiated first with 3 65 nm to get the Z -isomer (Peak 1). Afterwards, the sample was irradiated with 528 nm to get back to the E-isomer (Peak 2). The samples were measured at the isosbestic points.
Figure S19. Photostationary state of 1 after irradiation with 365 nm (switching to the Z - isomer).
Figure S20. Photostationary state of 1 after irradiation with 528 nm (switching to the E -isomer). […]

[4] = biological target: T1, human β2AR (Homo sapiens, UniProt P07550); type: cell-based
T1 construct: host or cells: HEK-293T
T1 sequence (P07550 whole entry): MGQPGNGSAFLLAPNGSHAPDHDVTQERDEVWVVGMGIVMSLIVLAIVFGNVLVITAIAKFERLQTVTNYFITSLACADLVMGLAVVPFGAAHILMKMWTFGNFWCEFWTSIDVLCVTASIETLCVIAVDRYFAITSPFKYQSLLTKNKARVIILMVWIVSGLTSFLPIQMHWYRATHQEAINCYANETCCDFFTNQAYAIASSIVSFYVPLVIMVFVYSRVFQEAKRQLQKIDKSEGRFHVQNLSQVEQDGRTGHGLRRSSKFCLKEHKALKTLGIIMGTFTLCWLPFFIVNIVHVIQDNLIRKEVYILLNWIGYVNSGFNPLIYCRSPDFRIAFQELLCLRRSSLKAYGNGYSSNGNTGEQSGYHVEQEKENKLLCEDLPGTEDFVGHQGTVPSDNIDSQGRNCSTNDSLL

[5] = E-isomer, β2AR wild type, mean ± S.E.M.
[6] = HEK-293T, E-isomer, β2AR wild type, relative to maximum effect of norepinephrine, read-out: Emax
[7] = HEK-293T, Z-isomer, β2AR wild type, relative to maximum effect of norepinephrine, read-out: Emax
[8] = Z-isomer, β2AR wild type, mean ± S.E.M.
[9] = HEK-293T, reference agonists, β2AR wild-type, relative to norepinephrine, read-out: Emax

Compound: Cc1nn(CCSSCCN)c(C)c1N=Nc1ccc(CCNCC(O)c2ccc(O)c3c2OCC(=O)N3)cc1 (mixture of isomers) [Compound 3]
- t1/2 [1]: 15.2 days
- λmax (E) [2]: 337 nm
- λmax (Z) [2]: 434 nm
- PSS (E → Z) [3]: 95%
- PSS (Z → E) [3]: 89%
- EC50 [4, 5]: 7.2 ± 3 nM
- Emax [4, 6]: 85 ± 2%
- Emax [4, 7]: 78 ± 4%
- EC50 [4, 8]: 17 ± 6.3 nM

Compound: Cc1nn(CCCCSSCCN)c(C)c1/N=N/c1ccc(CCNCC(O)c2ccc(O)c3c2OCC(=O)N3)cc1 (racemic) [Compound E-5]
- EC50 [4, 5]: 79 nM

Compound: Cc1nn(CCCCCSSCCN)c(C)c1/N=N/c1ccc(CCNCC(O)c2ccc(O)c3c2OCC(=O)N3)cc1 (racemic) [Compound E-6]
- Emax ([4]; E-isomer, β2AR wild type, relative to maximum effect of norepinephrine): 70%

Compound: Cc1nn(CCCCCSSCCN)c(C)c1/N=N\c1ccc(CCNCC(O)c2ccc(O)c3c2OCC(=O)N3)cc1 (racemic) [Compound Z-6]
- Emax ([4]; Z-isomer, β2AR wild type, relative to maximum effect of norepinephrine): 85%

Compound: Cc1nn(CCSSCCN(C)C)c(C)c1/N=N/c1ccc(CCNC[C@H](O)c2ccc(O)c(O)c2)cc1 [Compound 1, (R,E)-4-(2-((4-((1-(2-((2-(Dimethylamino)ethyl)disulfaneyl)ethyl)-3,5-dimethyl-1H-pyrazol-4-yl)diazenyl)phenethyl)amino)-1-hydroxyethyl)benzene-1,2-diol]
- t1/2 [1]: 3.9 days
- λmax (E) [2]: 335 nm
- λmax (Z) [2]: 435 nm
- PSS (E → Z) [3]: 89%
- PSS (Z → E) [3]: 90%
- EC50 [4, 5]: 630 ± 72 nM
- Emax [4, 6]: 108 ± 3%
- Emax [4, 7]: 78 ± 1%
- EC50 [4, 8]: 480 ± 110 nM

Compound: Cc1nn(CCCSSCCN(C)C)c(C)c1/N=N/c1ccc(CCNC[C@H](O)c2ccc(O)c(O)c2)cc1 [Compound 2]
- t1/2 [1]: 4.9 days
- λmax (E) [2]: 335 nm
- λmax (Z) [2]: 433 nm
- PSS (E → Z) [3]: 89%
- PSS (Z → E) [3]: 87%
- EC50 [4, 5]: 940 ± 34 nM
- Emax [4, 6]: 96 ± 2%
- Emax [4, 7]: 97 ± 1%
- EC50 [4, 8]: 700 ± 35 nM

Compound: Cc1nn(CCCSSCCN)c(C)c1/N=N/c1ccc(CCNCC(O)c2ccc(O)c3c2OCC(=O)N3)cc1 (centres unmarked) [Compound 4]
- t1/2 [1]: 15.7 days
- λmax (E) [2]: 339 nm
- λmax (Z) [2]: 436 nm
- PSS (E → Z) [3]: 96%
- PSS (Z → E) [3]: 92%
- EC50 [4, 5]: 39 ± 7 nM
- Emax [4, 6]: 88 ± 3%
- Emax [4, 7]: 87 ± 5%
- EC50 [4, 8]: 9.8 ± 0.9 nM

Compound: Cc1nn(CCCCSSCCN)c(C)c1/N=N/c1ccc(CCNCC(O)c2ccc(O)c3c2OCC(=O)N3)cc1 (centres unmarked) [Compound 5]
- t1/2 [1]: 16.7 days
- λmax (E) [2]: 338 nm
- λmax (Z) [2]: 436 nm
- PSS (E → Z) [3]: 94%
- PSS (Z → E) [3]: 92%
- EC50 [4, 5]: 79 ± 25 nM
- Emax [4, 6]: 98 ± 1%
- Emax [4, 7]: 93 ± 4%
- EC50 [4, 8]: 9.9 ± 1.7 nM

Compound: Cc1nn(CCCCCSSCCN)c(C)c1/N=N/c1ccc(CCNCC(O)c2ccc(O)c3c2OCC(=O)N3)cc1 (centres unmarked) [Compound 6]
- t1/2 [1]: 13.3 days
- λmax (E) [2]: 340 nm
- λmax (Z) [2]: 435 nm
- PSS (E → Z) [3]: 95%
- PSS (Z → E) [3]: 93%
- EC50 [4, 5]: 38 ± 5.8 nM
- Emax [4, 6]: 70 ± 2%
- Emax [4, 7]: 89 ± 1%
- EC50 [4, 8]: 21 ± 1.3 nM

Compound: Cc1nn(CCN2C(=O)C=CC2=O)c(C)c1/N=N/c1ccc(CCNC[C@H](O)c2ccc(O)c(O)c2)cc1 [Compound 7]
- t1/2 [1]: 4.5 days
- λmax (E) [2]: 335 nm
- λmax (Z) [2]: 433 nm
- PSS (E → Z) [3]: 92%
- PSS (Z → E) [3]: 85%
- EC50 [4, 5]: 1500 nM
- Emax [4, 6]: 103 ± 4%
- Emax [4, 7]: 101 ± 10%
- EC50 [4, 8]: 4300 nM

Compound: Cc1nn(CCN2C(=O)C=CC2=O)c(C)c1/N=N/c1ccc(CCNCC(O)c2ccc(O)c3c2OCC(=O)N3)cc1 (centres unmarked) [Compound 8]
- t1/2 [1]: 18.6 days
- λmax (E) [2]: 337 nm
- λmax (Z) [2]: 435 nm
- PSS (E → Z) [3]: 95%
- PSS (Z → E) [3]: 94%
- EC50 [4, 5]: 53 ± 2.6 nM
- Emax [4, 6]: 84 ± 5%
- Emax [4, 7]: 90 ± 2%
- EC50 [4, 8]: 75 ± 2.3 nM

Compound: Cc1nn(CCCN2C(=O)C=CC2=O)c(C)c1/N=N/c1ccc(CCNCC(O)c2ccc(O)c3c2OCC(=O)N3)cc1 (centres unmarked) [Compound 9]
- t1/2 [1]: 20.4 days
- λmax (E) [2]: 339 nm
- λmax (Z) [2]: 435 nm
- PSS (E → Z) [3]: 95%
- PSS (Z → E) [3]: 93%
- EC50 [4, 5]: 72 ± 12 nM
- Emax [4, 6]: 88 ± 5%
- Emax [4, 7]: 85 ± 5%
- EC50 [4, 8]: 57 ± 8.5 nM

Compound: Cc1nn(CCSSCCN)c(C)c1/N=N/c1ccc(CCNCC(O)c2ccc(O)c3c2OCC(=O)N3)cc1 (centres unmarked) [Compound E-3]
- EC50 [4, 5]: 7.2 nM

Compound: Cc1nn(CCSSCCN(C)C)c(C)c1/N=N\c1ccc(CCNC[C@H](O)c2ccc(O)c(O)c2)cc1 [Compound Z-1]
- EC50 ([4]; Z-isomer, β2AR wild type): 480 nM

Compound: Cc1nn(CCN2C(=O)C=CC2=O)c(C)c1/N=N\c1ccc(CCNC[C@H](O)c2ccc(O)c(O)c2)cc1 [Compound Z-7]
- EC50 ([4]; Z-isomer, β2AR wild type): 4300 nM

Compound: CNC[C@H](O)c1ccc(O)c(O)c1 [epinephrine, reference compound]
- Emax [4, 9]: 103%

Compound: NC[C@H](O)c1ccc(O)c(O)c1 [norepinephrine, reference compound]
- Emax [4, 9]: 100%
